The values below come from patent US7094770B2, “3′-or 2′-hydroxymethyl substituted nucleoside derivatives for treatment of hepatitis virus infections” (Pharmasset, Ltd., priority 2000, dated 2006).

Data set [1] has as its system HSV. To be noted: literature; cited from earlier work.
In data set [2] the test system is HIV. To be noted: literature; cited from earlier work.
The target of data set [3] is reverse transcriptase of human immunodeficiency virus (Human immunodeficiency virus type 1 group M subtype B, UniProt P03366). The following applies: tested as the 5′-triphosphate; cited from earlier work.
Data set [4] concerns Epstein Barr virus (EBV). To be noted: literature; cited from earlier work.
In data set [5] the test system is murine leukemia virus (MuLV). To be noted: literature; cited from earlier work.
Data set [6] concerns HSV-1. The following applies: literature; cited from earlier work.
Data set [7] concerns HBV. Kind of data set: Cell culture assay for anti-HBV activity (2.2.15 cells, HBV DNA in medium by Southern blot). The data set is classed as cell-based, Hepatitis B virus. The following applies: for EC50: read-out: Anti-HBV EC50; for Antiviral activity (in words): virus not named. The source says: We follow the protocol described by Korba and Gerin(Antiviral Res., 1992, 19:55) and Pai et al. (Antimicrobial Agents Chemother., 1996, 40:380) which is used widely in the field. The HepG 2 2.2.15 cells contain a stably integrated HBV genome, the transcript from which serves as a template for viral replication. The cells produce virions which are elaborated into the medium. The production of the virion DNA is monitored by analysis of medium by Southern blotting. Drugs which inhibit viral replication reduce the levels of virion DNA in the medium, relative to controls.
Confluent cells in 24 well tissue culture dishes are treated with test compounds starting at 1 nM and extending logarithmically to 10 μM (1 nM, 3.2, 10 nM, 32, 100 nM, 1 μM, 10 μM […]). Medium is changed […] every 3 days and DNA extracted from the 3, 6, and […] day samples. The virions are concentrated by polyethylene glycol precipitation (equal volume addition of PEG 8000). After cooling on ice the samples are spun and the pellets treated with SDS and Proteinase K followed by Phenol:Chloroform extraction and ethanol precipitation of the DNA. The DNA is analyzed for HBV sequences by Southern hybridization. The probe used for the analysis is a ^32P labeled Eco RI fragment from the HBV clone described by Korba et al. 3TC is used as a positive control compound with known activity against HBV.
System: The most widely used system for the study of anti-HBV agents is the hepatoma cell culture system with the HBV genome. These cells are designated as the 2.2.15 cells, AD38 cells and AD79 cells. The 2.2.15 cells were generated by the transfection of the human hepatoma cells—HepG2 with HBV DNA. (Sells, et al., Proc. Natl. Acad. Sci. USA 84:1005–1009, 1987) HBV viral replication takes place in these cells. The HBV replication can be monitored intracellularly as well as extracellularly in these cells.
Assay for Anti-HBV agents: 2.215 cells are grown in multi-well dishes in RPMI medium supplemented with 4% fetal bovine serum. After 3 to 4 days of growing the cells, they are treated with varying concentrations of the test compound(s). The test compounds are dissolved in DMSO or sterile water. Cultures without the addition of the test compounds serve as controls. The addition of the test compound(s) is repeated at 3-day intervals. The medium is changed and replaced with appropriate concentration of the test compound. At the end of the 9-day treatment period, the culture medium is harvested and processed for viral DNA. The viral DNA thus obtained is analyzed by Southern blot analysis. After the Southern transfer, the blot is subjected to hybridization to an HBV specific probe to detect HBV DNA. The hybriodization is carried out overnight. After the hybridization, free probe is removed by washing of the blots. The specific hybridization is visualized by autoradiography. Inhibition produced by the test compound is calculated with reference to the levels of HBV DNA in the control samples.

Data set [8] has as its system human cytomegalovirus (HCMV). To be noted: literature; cited from earlier work.
The test system of data set [9] is HSV-2. The following applies: literature; cited from earlier work.
The test system of data set [10] is Varicella zoster virus (VZV). The following applies: literature; cited from earlier work.
In data set [11] the test system is Vero cells. Kind of data set: Cytotoxicity in Vero cells. The data set is classed as cell-based. The procedure:
(§1) We also perform toxicity assays by measuring the inhibition of uptake of […] dye by treated cells. These assays are done in 96 well plates. After the standard 10 day treatment regimen medium is removed and PBS containing MTS dye added to each well. After a 2 hour incubation the absorbance of the metabolized product is measured at 490 nm.

Data set [12] concerns HIV-1. Kind of data set: Anti-HIV evaluation in human PBM cells. The data set is classed as cell-based. The following applies: for EC50: HIV-1. An excerpt:
(§2) Human PBM cells from healthy donors, seronegative for HIV-1 and HBV, are isolated by a single-step Ficoll-Hypaque discontinuous gradient centrifugation and propagated as described previously (Schinazi et al., Antimicrobial Agents Chemother., 1990, 34:1061; 1992, 36:2423; 1993, 37:875). Compounds are screened for activity against HIV-1 and cytotoxicity by a protocol reported previously reported by Schinazi, et al. The prototype strain of HIV-1LAI obtained from the Centers for Disease Control and Prevention, Atlanta, Ga., is used as the standard virus for the studies in human PBM cells.

Data set [13] relates to PBM cells. Briefly: Cytotoxicity in PBM cells. The data set is classed as cell-based, human. The procedure: as §1, §2
Data set [14] can be described thus: Cytotoxicity in CEM cells. The data set is classed as cell-based. The following applies: human. The procedure:
as §1

Data set [15] in a line: Cytotoxicity in Vero cells. The following applies: African green monkey. The data set is classed as cell-based. The procedure: as §1
Data set [16] in a line: Cytotoxicity in HepG2 cells. The data set is classed as cell-based. The following applies: human. As to the method:
as §1

Data set [17] can be described thus: Cytotoxicity in PBM cells. The data set is classed as cell-based, human. The following applies: human. The procedure:
as §1, §2

The subject of data set [18] is HBV. To be noted: background statement; cited from earlier work.
Setting [19] is: Human immunodeficiency virus 1, PBMC.

SMILES strings stand for the structures. Like-named read-outs stand apart in the source and are kept apart here. Where only a bound is given, the exact number is not on record here.

`Nc1ccn([C@H]2C[C@H](CO)[C@@H](CO)O2)c(=O)n1` [2′,3′-dideoxy-3′-hydroxymethyl-cytidine]: the “Activity against HSV (in words)” value in data set [1] is recorded as “active”. In [2], the “Activity against HIV (in words)” value is “good activity”.

Take `CO[C@H]1C[C@H](n2cc(C)c(=O)[nH]c2=O)O[C@@H]1CO` [3′-O-methylthymidine]: in [3], the “Inhibition of HIV reverse transcriptase (in words)” value was “exceptionally potent inhibitor”. Moreover, in data set [2], the “Activity against HIV (in words)” value is “inactive”.

Consider `Cc1cn([C@H]2C[C@H](CO)[C@@H](CO)O2)c(=O)[nH]c1=O` [3′-deoxy-3′-hydroxymethylthymidine], for which, in [4], the “Activity against EBV (in words)” value is recorded as “devoid of activity”. Besides, the “Activity against MuLV (in words)” value in data set [5] was “devoid of activity”. In addition, the “Activity against HSV-1 (in words)” value in data set [6] is listed as “devoid of activity”. For the same compound, the “Activity against HBV (in words)” value in data set [7] ("we discovered") is “potent agent”. Moreover, in data set [8], the “Activity against HCMV (in words)” value is listed as “devoid of activity”. Besides, in data set [9], the “Activity against HSV-2 (in words)” value is on record as “devoid of activity”. In [10], the “Activity against VZV (in words)” value is listed as “devoid of activity”. In [2], the “Activity against HIV (in words)” value was “devoid of activity”.

Turning to `O=c1[nH]c(=O)n(C2O[C@H](CO)[C@@H](CO)[C@@H]2O)cc1C=CBr` (stereo partly drawn) [5-bromovinyl-1-(3-deoxy-3-hydroxymethyl-D-arabinofuranosyl)-uracil], the “Activity against HSV (in words)” value in data set [1] was “active”.

Consider `Cc1cn(C2CC(CO)C(CO)O2)c(=O)[nH]c1=O` (stereo not shown) [Compound 4 (Series 1)], for which the EC50 was > 10 µM in data set [7] and 87.7 µM in data set [12]. Also, the IC50 in data set [11] and in data set [13] was > 100 µM in each case.

Take `Nc1nc(=O)n(C2OC(CO)C(CO)C2F)cc1F` (stereo not shown) [Compound 10 (Series 2)]: the “Inhibition of HBV replication (in words)” value in data set [7] was “potent inhibitors”. For the same compound, the EC50 in data set [7] (Hepatitis B virus) stood at 0.13 µM; in data set [12] (setting [19]), 3.3 µM. The IC50 at 10 day in data set [14], in data set [15] and in data set [16] was > 100 µM each time. For the same compound, the “Inhibition of HIV replication (in words)” value in data set [12] was “potent inhibitors”. For the same compound, the IC50 in [17] was > 100 µM.

As to `Cc1cn(C2OC(CO)C(CO)C2F)c(=O)nc1N` (stereo not shown) [Compound 11 (Series 2)], the EC50 in [7] was < 10 µM; in data set [12] it was 112 µM. In addition, the “Antiviral activity (in words)” value in data set [7] is given as “moderate activities”. In addition, the IC50 at 10 day in [14] was > 100 µM. For the same compound, the IC50 in [11] and in data set [13] was > 100 µM each time.

For the compound `Cc1cn(C2OC(CO)C(CO)C2F)c(=O)[nH]c1=O` (stereo not shown) [Compound 12 (Series 2)], the EC50 in [7] was < 10 µM; in data set [12], > 100 µM. Also, the “Antiviral activity (in words)” value in data set [7] is “moderate activities”. The IC50 at 10 day in data set [14] and in [15] was > 100 µM each time. In addition, the IC50 in [13] was > 100 µM.

On to `Nc1ncnc2c1ncn2C1OC(CO)C(CO)C1F` (stereo not shown) [Compound 23 (Series 2)], for which the EC50 in [7] (Hepatitis B virus) was found to be 1.04 µM; in [12] (setting [19]) it was 95.4 µM. In addition, the IC50 at 10 day in data set [14], in data set [15] and in data set [16] was > 100 µM each time. Also, the IC50 in data set [17] is > 100 µM.

Turning to `Cc1cn(C2CC(CO)N(C)O2)c(=O)[nH]c1=O` (stereo not shown) [Compound 40 (Series 2)], the figures for the EC50 in data set [7] and in data set [12] were > 10 µM and > 100 µM, respectively. The IC50 in [11] and in [13] was > 100 µM each time.

As to `CN(O)C1C(CO)OC(n2ccc(N)nc2=O)[C@H]1F` (stereo partly shown) [Compound 58 (Series 2)], the “Inhibition of HBV replication (in words)” value in [7] is listed as “potent inhibitors”. The EC50 in [7] (Hepatitis B virus) stood at 0.65 µM; in data set [12] (setting [19]), 0.09 µM. Also, the results for the IC50 at 10 day in data set [14], in data set [15] and in data set [16] were 40.2 µM, ~106 µM and > 100 µM, respectively. In addition, the “Inhibition of HIV replication (in words)” value in data set [12] is on record as “potent inhibitors”. Besides, the IC50 in data set [17] stood at 7.4 µM.

Turning to `CN(O)C1C(CO)OC(n2ccc(N)nc2=O)C1F` (stereo not shown) [Compound 59 (Series 2)], in data set [7], the “Inhibition of HBV replication (in words)” value is “potent inhibitors”. For the same compound, the EC50 in data set [7] (Hepatitis B virus) was ≤ 10 µM; in data set [12] (setting [19]) it was 0.49 µM. Further, the IC50 at 10 day was 65.3 µM in data set [14], > 100 µM in data set [15] and > 100 µM in [16]. The “Inhibition of HIV replication (in words)” value in [12] is “potent inhibitors”. Besides, the IC50 in data set [17] is > 100 µM.

Turning to `CN(O)C1C(CO)OC(n2cc(F)c(=O)[nH]c2=O)C1F` (stereo not shown) [Compound 61 (Series 2)], the figures for the EC50 in data set [7] and in data set [12] were > 10 µM and 52.3 µM, respectively. In addition, the IC50 in [11] and in data set [13] was > 100 µM each time.

`Nc1nc(=O)n([C@@H]2O[C@H](CO)[C@@H](O)[C@@H]2F)cc1I` [Fiacitabine]: the “Activity against HBV (in words)” value in data set [18] is listed as “effectively inhibit replication”. In addition, the “Activity against HIV (in words)” value in data set [2] is on record as “devoid of activity”.

Regarding `O=c1[nH]c(=O)n([C@@H]2O[C@H](CO)[C@@H](O)[C@@H]2F)cc1I` [Fialuridine], the “Activity against HBV (in words)” value in data set [18] is reported as “effectively inhibit replication”. The “Activity against HIV (in words)” value in [2] is “devoid of activity”.

In the case of `Cc1cn([C@H]2C[C@H](N=[N+]=[N-])[C@@H](CO)O2)c(=O)[nH]c1=O` [Zidovudine], the “Inhibition of HIV reverse transcriptase (in words)” value in [3] is given as “potent inhibitor”. In addition, the “Activity against HBV (in words)” value in data set [18] was “inactive”.

The EC50 is the concentration giving half of the maximal effect. One may read the IC50 as the midpoint of a concentration-inhibition curve.
